Laboratory results: ChEMBL document CHEMBL3352258 (J Med Chem, 2014)
pEC50: −log10 of the molar value. Converted amounts (≈) assume the structure as drawn.

Tests used:
[1] = target: T1, Glucose-dependent insulinotropic receptor (Homo sapiens, UniProt Q8TDV5); assay: Agonist activity at human GPR119
T1 sequence (Q8TDV5 whole entry): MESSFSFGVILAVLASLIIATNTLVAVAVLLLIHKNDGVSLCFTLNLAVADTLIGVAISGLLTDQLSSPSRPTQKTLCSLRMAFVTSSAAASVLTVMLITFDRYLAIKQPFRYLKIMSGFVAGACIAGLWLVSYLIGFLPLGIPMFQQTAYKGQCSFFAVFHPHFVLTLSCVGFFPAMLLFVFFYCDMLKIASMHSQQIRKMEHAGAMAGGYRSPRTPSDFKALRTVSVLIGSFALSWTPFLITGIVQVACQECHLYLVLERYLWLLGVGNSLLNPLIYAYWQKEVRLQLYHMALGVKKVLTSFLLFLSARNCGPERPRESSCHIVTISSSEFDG

[2] = target: T2, Glucose-dependent insulinotropic receptor (Homo sapiens) (UniProt Q8TDV5); assay: Intrinsic activity at human GPR119 relative to control
T2 sequence (whole entry): T1 sequence (Q8TDV5 whole entry)

[3] = Solubility of the compound at pH 6.5; format: physicochemical; conditions: buffer
[4] = Half life in human liver microsomes; format: ADME
[5] = Half life in mouse; format: ADME, organism-based; conditions: in vivo
[6] = Half life in Sprague-Dawley rat at 5 mg/kg, po; format: ADME, organism-based; set-up: dose 5 mg/kg, route oral; conditions: Sprague-Dawley, in vivo
[7] = Solubility of the compound in 50% PEG400/ 50% PBS solution; format: physicochemical

Structure (SMILES)	pEC50 [1]	Intrinsic activity [2]	also measured
CC(C)OC(=O)N1CCC(Oc2ccn(-c3ccc(S(C)(=O)=O)cc3)c(=O)c2)C1 (stereo not given)	< 5.00		
CC(C)OC(=O)N1CCC(COc2ccn(-c3ccc(S(C)(=O)=O)cc3)c(=O)c2)CC1	5.77	0.7	
CC(C)OC(=O)N1[C@@H]2CC[C@@H]1CC(Oc1ccn(-c3ccc(S(C)(=O)=O)cc3)c(=O)c1)C2 (relative stereo; 13) [listing 1 of 2 here]		1	
CC(C)OC(=O)N1[C@@H]2CC[C@@H]1CC(Oc1ccn(-c3ccc(S(C)(=O)=O)cc3)c(=O)c1)C2 (relative stereo; 13) [listing 2 of 2 here]	6.06		
CC(C)OC(=O)N1CCC(COc2ccn(-c3ccc(S(C)(=O)=O)cc3)c(=O)c2)C1 (stereo not given)	< 5.00		
CC(C)OC(=O)N1CCCC(Oc2ccn(-c3ccc(S(C)(=O)=O)cc3)c(=O)c2)CC1 (stereo not given)	5.96	0.7	
CCCc1cnc(N2CCC(Oc3ccn(-c4ccc(S(C)(=O)=O)cc4)c(=O)c3Cl)CC2)nc1	< 5.00		
CC(C)(C)OC(=O)N1CCC(Oc2ccn(-c3ccc(S(C)(=O)=O)cc3)c(=O)c2)CC1	6.74	0.8	
Cc1ccnc(N2CCC(Oc3ccn(-c4ccc(S(C)(=O)=O)cc4)c(=O)c3)CC2)n1	6.14	0.3	
CC(C)OC(=O)N1CCC(Oc2ccn(-c3ccc(S(C)(=O)=O)cc3)c(=O)c2)CC1	6.88	0.8	
CCCc1cnc(N2CCC(Oc3cc(=O)n(-c4ccc(S(C)(=O)=O)cc4)cc3Cl)CC2)nc1		0.8	
CCCc1cnc(N2CCC(Oc3cc(C)n(-c4ccc(S(C)(=O)=O)cc4)c(=O)c3)CC2)nc1	< 5.00		
CC(C)OC(=O)N1CC(Oc2ccn(-c3ccc(S(C)(=O)=O)cc3)c(=O)c2)C1	< 5.00		
CS(=O)(=O)c1ccc(-n2ccc(OC3CCN(C(=O)Oc4ccccc4)CC3)cc2=O)cc1	6.89	0.9	
CCCc1cnc(N2CCC(Oc3ccn(-c4ccc(-n5ccnc5)cc4)c(=O)c3)CC2)nc1		0.8	
CC(C)OC(=O)N1[C@@H]2CC[C@@H]1CC(Oc1ccn(-c3ccc(S(C)(=O)=O)cc3)c(=O)c1)C2 (relative stereo; 14)		0.7	
CC(C)OC(=O)N1CC(COc2ccn(-c3ccc(S(C)(=O)=O)cc3)c(=O)c2)C1	< 5.00		
CCCc1cnc(N2CCC(Oc3cc(=O)n(-c4ccc(S(C)(=O)=O)cc4)cc3-c3ccccc3)CC2)nc1	< 5.00		

Second part, led by results:

pEC50 [1]	Intrinsic activity [2]	Structure (SMILES)	also measured
7.96	0.8	CCCc1cnc(N2CCC(Oc3ccn(-c4ccc(C#N)cc4)c(=O)c3)CC2)nc1	
7.51	0.9	CCCc1cnc(N2CCC(Oc3cc(=O)n(-c4ccc(S(C)(=O)=O)cc4)cc3C)CC2)nc1	
7.80		CS(=O)(=O)c1ccc(-n2cc(Cl)c(OC3CCN(c4ncc(C(F)(F)F)cn4)CC3)cc2=O)cc1F	solubility [3]: < 1 µg/mL; half-life [4]: > 120 min; half-life [5]: 27 min; half-life [6]: > 48 min; solubility [7]: 31 µg/mL (≈ 56.7 µM)
7.64	0.9	CS(=O)(=O)c1ccc(-n2ccc(OC3CCN(c4ncc(C5CC5)cn4)CC3)cc2=O)cc1	
7.24	0.8	CCc1cnc(N2CCC(Oc3ccn(-c4ccc(S(C)(=O)=O)cc4)c(=O)c3)CC2)nc1	
7.92	0.8	CCCc1cnc(N2CCC(Oc3cc(=O)n(-c4ccc(S(C)(=O)=O)cc4)cc3C#N)CC2)nc1	
8.05	0.8	CCCc1cnc(N2CCC(Oc3ccn(-c4ccc(S(C)(=O)=O)c(F)c4)c(=O)c3)CC2)nc1	
7.49	0.8	CCCc1cnc(N2CCC(Oc3ccn(-c4ccc(N5CCCC5=O)cc4)c(=O)c3)CC2)nc1	
7.80	0.8	CCCc1cnc(N2CCC(Oc3ccn(-c4ccc(S(C)(=O)=O)cc4)c(=O)c3)CC2)nc1	
7.20	0.8	CCCc1cnc(N2CCC(Oc3ccn(-c4ccc(-n5cncn5)cc4)c(=O)c3)CC2)nc1	
6.93	1	COc1cnc(N2CCC(Oc3ccn(-c4ccc(S(C)(=O)=O)cc4)c(=O)c3)CC2)nc1	
7.43	0.8	CCCc1cnc(N2CCC(Oc3ccn(-c4ccc(NC(=O)C(C)(C)C)cc4)c(=O)c3)CC2)nc1	
7.39	0.9	CCCc1cnc(N2CCC(Oc3ccn(-c4ccc([S+](C)[O-])cc4)c(=O)c3)CC2)nc1 (racemic)	
6.98	0.6	CCc1ccc(N2CCC(Oc3ccn(-c4ccc(S(C)(=O)=O)cc4)c(=O)c3)CC2)nc1	
7.74		CS(=O)(=O)c1ccc(-n2cc(Cl)c(OC3CCN(c4ncc(Cl)cn4)CC3)cc2=O)cc1	solubility [3]: < 1 µg/mL; half-life [4]: 59 min; half-life [5]: 11 min; half-life [6]: 9 min; solubility [7]: 7 µg/mL (≈ 14.1 µM)
7.89		CS(=O)(=O)c1ccc(-n2cc(Cl)c(OC3CCN(c4ncc(C(F)(F)F)cn4)CC3)cc2=O)cc1	solubility [3]: < 1 µg/mL; half-life [4]: > 120 min; half-life [5]: 16 min; half-life [6]: > 72 min; solubility [7]: 3 µg/mL (≈ 5.67 µM)
7.89		CS(=O)(=O)c1ccc(-n2cc(Cl)c(OC3CCN(c4ncc(Cl)cn4)CC3)cc2=O)cc1F	solubility [3]: 3 µg/mL (≈ 5.84 µM); half-life [4]: 39 min; half-life [5]: 18 min; half-life [6]: 12 min; solubility [7]: 199 µg/mL (≈ 388 µM)
7.92		CS(=O)(=O)c1ccc(-n2cc(Cl)c(OC3CCN(c4ncc(C(F)(F)F)cn4)CC3)cc2=O)c(F)c1	solubility [3]: 1 µg/mL (≈ 1.83 µM); half-life [4]: > 120 min; half-life [5]: 30 min; half-life [6]: > 72 min; solubility [7]: 122 µg/mL (≈ 223 µM)
